Results taken from patent publication US12629345B2, “Methods, compositions, and devices for drug / live cell microarrays” (Pathak Holdings LLC, priority 2013, dated 2026).
Entries after “also recorded” stand apart in the source; their conditions may differ. Counter-ions that a name gives are not always drawn.

Columns and labels:
Type in all cases: physicochemical
[1] = Bupivacaine base release from PLGA microimplants formed with oscillating needle in bovine pericardium; conditions: PDLG 5002 in DMSO infused by oscillating needle, PBS 37 degree C.
Method: Oscillating needle such as tattoo needle may be used to create cavities in the tissue or skin. A commercial tattoo machine as described in the related application (U.S. Pat. No. 9,072,678, cited herein for reference only) is used. The 500-1000 micron size tattoo needle is used and the oscillation frequency was 10 to 12000 oscillations per minute. About 1 square centimeter area was treated with the tattoo needle for 1 minute. The pores created by the tattoo machine repeated needle insertion were used to fill the injectable composition such PLGA solutions with the drug as described before. Alternatively, polymer solution is first applied on the tissue surface to form a solution layer and then the tattoo needle is used to create holes through the solution. The needle goes in and out of the tissue surface and carries the solution with it inside the cavity created. The deposited solution inside the cavity is precipitated by the tissue fluids and the precipitated polymer releases the drug in a sustained manner. Additional information about tattoo based methods can be found on related applications cited herein for reference only. […] The concentration of bupivacaine in the eluted samples is monitored using UV spectrophotometer. […]

[2] = Bupivacaine hydrochloride release from in situ PLGA implant with and without magnesium carbonate filler; conditions: FIG. 21B
Method: 100.2 mg PDLG 5002 polymer is dissolved in 1.0 ml DMSO. 10 microliters of methylene blue stock solution (10 mg methylene blue in 2 ml DMSO) is added to the polymer solution as a colorant. Infusion solutions are prepared using the following method: 15.2 mg bupivacaine hydrochloride and 0.50 ml polymer solution are mixed until drug is completely dissolved. 50 mg magnesium carbonate powder (fine powder sieved to collect fraction below 300 microns in size) is added as a biocompatible and biodegradable filler in the drug solution and the mixture is vigorously vortexed for 5 minutes. The magnesium carbonate suspension is infused/tattooed using an oscillating needle in 1 cm square area of sheep skin tissue. Excess solution from the tattooed surface is wiped off. The light blue tattoo with magnesium particles is clearly seen the by unaided naked eye.
Similarly, a polymer solution without magnesium carbonate is prepared and infused/tattooed in the sheep skin tissue as above. The infused tissue sample is cut and used in controlled release experiment.
The cut samples are placed in 3 mL of PBS (pH 7.4). The drug eluted PBS is collected at several time points. Fresh PBS is added to replace the eluted PBS solution. The collected PBS is analyzed using a UV spectrophotometer to determine the drug concentration.

[3] = Rifampin release from encapsulated microspheres in microimplant array in sheep skin tissue; conditions: PLGA microspheres in glycerol, 33 MP array, PBS 37 degree C., FIG. 14
Method: Rifampin containing red/yellow microspheres are prepared using spray drying method or prepared according to Example 3. Microspheres are prepared using PLGA polymer (PDLG 5002 from Purac) polymer with 20 percent rifampin loading relative to the polymer plus drug weight. Control PLGA microspheres without rifampin are prepared under identical spry drying conditions. 4.9 mg of rifampin encapsulated microspheres are suspended in 0.25 ml glycerol. One/two drops of the suspension are added on the 2 by 2 cm glutaraldehyde fixed sheep tissue. The 33 MP microarray needles are pressed on the tissue via rifampin suspension to create 3 by 3 micro array cavities and infuse the cavities with the rifampin microspheres. The procedure is repeated 9 times on the same tissue at different locations to create 135 micro cavities loaded with rifampin microspheres. The excess suspension is wiped of using tissue paper. No loosely adherent microspheres in the tissue are noticed. The glycerol in the suspension is dissipated in the tissue leaving behind the microspheres in the cavities. […] The rifampin treated tissue and control tissue are incubated at 37 degree C. in 3 ml PBS and rifampin in treated and control samples is monitored at various time points. Rifampin concentration in the eluted samples is analyzed using UV-VIS spectrophotometer (wavelength 474 nm).

Structure (SMILES): CCCCN1CCCCC1C(=O)Nc1c(C)cccc1C (centres unmarked) [bupivacaine base, bupivacaine]
- sustained release of bupivacaine base from in situ formed implant ([1]; FIG. 13): several days
- sustained release of bupivacaine base from in situ formed implant ([1]; FIG. 13, listed as bupivacaine): released in a sustained manner; also recorded: few days

Structure (SMILES): CCCCN1CCCCC1C(=O)Nc1c(C)cccc1C (centres unmarked) [bupivacaine hydrochloride]
- duration of release of bupivacaine hydrochloride ([2]; PLGA array implant with magnesium carbonate filler, hydrochloride): several days; also recorded: much longer sustained release
- duration of release of bupivacaine hydrochloride ([2]; PLGA array implant without magnesium carbonate): one to two days

Structure (SMILES): CO[C@H]1/C=C/O[C@@]2(C)Oc3c(C)c(O)c4c(O)c(c(/C=N/N5CCN(C)CC5)c(O)c4c3C2=O)NC(=O)/C(C)=C\C=C\[C@H](C)[C@H](O)[C@@H](C)[C@@H](O)[C@@H](C)[C@H](OC(C)=O)[C@@H]1C [rifampin]
- release of rifampin from microspheres in microimplant array [3]: sustained release
